Drawing on publication PMC11259535 (ACS chemical biology, 2024), this text covers co-crystal structure and Km for 2 molecules.

For data set [1], the target named is T1, succinyl-CoA:glutarate-CoA transferase (SUGCT) (Homo sapiens, UniProt Q9HAC7, Q255A/K256A).
T1 sequence (Q9HAC7 31-438 Q255A/K256A): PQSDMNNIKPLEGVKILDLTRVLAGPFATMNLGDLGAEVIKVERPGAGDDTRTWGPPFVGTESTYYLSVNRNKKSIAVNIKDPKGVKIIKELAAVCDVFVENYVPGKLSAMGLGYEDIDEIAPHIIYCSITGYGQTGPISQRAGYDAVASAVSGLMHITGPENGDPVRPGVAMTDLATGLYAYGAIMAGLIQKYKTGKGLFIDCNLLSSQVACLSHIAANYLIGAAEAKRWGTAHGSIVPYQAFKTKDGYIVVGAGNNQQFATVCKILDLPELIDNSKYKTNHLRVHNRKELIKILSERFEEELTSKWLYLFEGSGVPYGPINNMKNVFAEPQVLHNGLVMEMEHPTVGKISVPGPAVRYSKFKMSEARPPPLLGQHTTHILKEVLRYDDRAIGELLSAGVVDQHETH
Nature of the data set: co-crystal structure. The class given is binding.

Substrate in the data set “saturation kinetics”: CC(C)(COP(=O)(O)OP(=O)(O)OC[C@H]1O[C@@H](n2cnc3c(N)ncnc32)[C@H](O)[C@@H]1OP(=O)(O)O)[C@@H](O)C(=O)NCCC(=O)NCCSC(=O)CCCC(=O)O
Nature of the data set: saturation kinetics. It counts as biochemical, Homo sapiens.

As to `CCCCc1nc(Cl)c(C(=O)O)n1Cc1ccc(-c2ccccc2-c2nn[nH]n2)cc1` [losartan carboxylic acid], the co-crystal structure entry in data set [1] is “There was unambiguous density for losartan carboxylic acid in one of the four active sites”.

B1: succinyl-CoA:glutarate-CoA transferase (SUGCT) (Homo sapiens) (protein)
chain: PQSDMNNIKPLEGVKILDLTRVLAGPFATMNLGDLGAEVIKVERPGAGDDTRTWGPPFVGTESTYYLSVNRNKKSIAVNIKDPKGVKIIKELAAVCDVFVENYVPGKLSAMGLGYEDIDEIAPHIIYCSITGYGQTGPISQRAGYDAVASAVSGLMHITGPENGDPVRPGVAMTDLATGLYAYGAIMAGLIQKYKTGKGLFIDCNLLSSQVACLSHIAANYLIGQKEAKRWGTAHGSIVPYQAFKTKDGYIVVGAGNNQQFATVCKILDLPELIDNSKYKTNHLRVHNRKELIKILSERFEEELTSKWLYLFEGSGVPYGPINNMKNVFAEPQVLHNGLVMEMEHPTVGKISVPGPAVRYSKFKMSEARPPPLLGQHTTHILKEVLRYDDRAIGELLSAGVVDQHETH
B1: the Michaelis-Menten constant (Km) in “saturation kinetics” came out at 17.3 µM.
